The record followed here is patent US5346814A, “Method of detecting cell response to cell-damaging energy” (Board of Trustees of the Leland Stanford Jr. University, priority 1992, dated 1994).

The structures appear in SMILES notation. “Also recorded” adds a separate entry of the source.

In data set [1] the test system is K+ channel proteins recognized by antibody ShA-3. Kind of data set: Western blot of K+ channel proteins in RIF-1 cells (ShA-3 antibody). The class given is cell-based, murine. The note with it: RIF-1 cells grown in 2% DMSO for 3, 5, 7 days. On the procedure: Western Blot Analysis In general, following separation of cellular proteins by sodium dodecyl sulfate (SDS)-polyacrylamide gel electrophoresis, separated proteins were electroblotted onto a nitrocellulose membrane using a 25 mM Tris-HCl/192 mM glycine/20% (v/v) methanol transfer buffer (pH 8.3) in a Trans-Blot apparatus (Bio-Rad, Richmond, Calif.) at 15 V and 100 mA for 12 to 14 h. The blot was blocked in 5% nonfat dry milk in TBS (50 mM Tris containing 0.2 M NaCl, pH 7.4) at room temperature for 1h; this step and all following steps were done with continuous agitation. The primary antibody was diluted 1:200 in 3% nonfat dry milk in TBS, and the blot was incubated for 16 to 24 h at 4° C. The blot was washed with TBS three times for 10 min per wash, and incubated for 2 h at room temperature with a 1:500 dilution of alkaline phosphatase-conjugated antispecies antibody. After washing with TBS as above, the blot was developed by incubation for 20 min in a solution containing 3-hydroxy-2-naphthoic acid 2,4-dimethylanilide phosphate (1 μg/ml ) and fast red (2 μg/ml) in TBS buffer. The developed blot was washed in distilled, deionized water to stop the color reaction.
RIF-1 and TR-4 cells were grown in exponential phase at 37° C. in RPMI-1640 medium supplemented with 10% FBS. […]
Background: In western blotting, separated proteins are transferred to a membrane and probed.

The subject of data set [2] is voltage-dependent potassium currents in RIF-1 cells. Kind of data set: Whole-cell voltage-clamp recording of heat-inducible potassium currents in DMSO-treated RIF-1 cells. The settings on record: RIF-1 cells grown in 2% DMSO. The class given is cell-based, murine. On the procedure:
(§1) Voltage-Clamp Recordings.
The potassium currents of RIF-1 cells grown in the presence of 2% DMSO as above (Example 7) were determined in the presence and absence of 20 mM TEA following heating of the cells at 45° C. for 10 minutes, as in Example 2.

The test system of the next data set is HSP70. Kind of data set: Western blot of HSP70 polypeptide levels in RIF-1 cells (N-27 antibody). The format is cell-based, murine. On the procedure: Western Blot Analysis In general, following separation of cellular proteins by sodium dodecyl sulfate (SDS)-polyacrylamide gel electrophoresis, separated proteins were electroblotted onto a nitrocellulose membrane using a 25 mM Tris-HCl/192 mM glycine/20% (v/v) methanol transfer buffer (pH 8.3) in a Trans-Blot apparatus (Bio-Rad, Richmond, Calif.) at 15 V and 100 mA for 12 to 14 h. The blot was blocked in 5% nonfat dry milk in TBS (50 mM Tris containing 0.2 M NaCl, pH 7.4) at room temperature for 1h; this step and all following steps were done with continuous agitation. The primary antibody was diluted 1:200 in 3% nonfat dry milk in TBS, and the blot was incubated for 16 to 24 h at 4° C. […]
RIF-1 cells were grown for 7 days in the presence of 2% DMSO as in Example 9. After the seventh day, cells were heated at 45° C. for 10 min, and were analyzed either immediately by SDS gel/Western blot analysis, or after an additional 18 hour growth period at 37° C. to allow synthesis of heat-inducible HSP70 polypeptides. […]
In a parallel set of experiments, heating of the mock- and gene-transfectedcells was performed in the presence or absence of 20 mM TEA, and the expression of HSP70 proteins was determined by immunoblot analysis, using the HSP70-specific N-27 antibody as in Example 10.

The test system of another data set is RIF-1 cells. Kind of data set: Clonogenic survival assay after heating at 45° C., RIF-1 cells. The format is cell-based, murine. On the procedure:
RIF-1 cells were grown at 37° C. in RPMI-1640 medium supplemented with 10% FBS and 2% (v/v) DMSO (dimethylsulfoxide). After seven days of growth, the medium was replaced with DMSO-free medium, and the heat sensitivity of the cells in the presence and absence of 20 mM TEA was determined by clonogenic assay as in Example 4. The results are shown in FIGS. 7A and 7B, with survival data for non-DMSO-treated RIF-1 cells shown for comparison.

Data set [3] deals with voltage-dependent potassium currents in A549 cells. Kind of data set: Whole-cell voltage-clamp recording of K+ currents in non-irradiated A549 cells after chemical treatment. The format is cell-based, human.
Protocol: Voltage-Clamp Recordings. Whole-cell recording was performed by voltage clamp analysis as described by Hamill et al. (1981). In general, prior to whole cell recording, the cell medium was replaced with serum-free medium to ensure a better giga-ohm seal. […] Glass electrodes having a tip resistance of 3-7 Mohms were sylgarded (with Sylgard, Dow Chemical) and backfilled with a solution containing 140 mM KCl, 2 mM MgCl2, 11 mM EGTA, 1 mM CaCl2, and 10 mM Hepes, pH 7.2. […] A test pulse of 20 mV was applied, and the cell was then aspirated against the tip of the microelectrode. The membrane seal resistance was determined from the reduction in voltage of the test pulse.
Membrane currents were filtered at 2 kHz using a 4-pole low pass Bessel filter before sampling with a 12-bit digital-analog converter controlled by a Labmaster board (Scientific Solutions) in an IBM AT computer. Leakage currents were subtracted from the total currents measured at each voltage either by using a p,p/4 algorithm (Armstrong and Bezanilla, 1974) built into the software (INDEC Systems, Santa Cruz, Calif.), or after determining the linear component from the current-voltage (I-V) relation near the holding potential of -75 mV. The limit of sensitivity of the current measurements in these experiments was about 50-60 pA.
Data set [4] shares this test system. The data set can be described thus: Whole-cell voltage-clamp recording of radiation-induced K+ currents in A549 cells. The class given is cell-based, human. On the procedure: as §1
In a second study, to determine whether the induced currents -were affected by the presence of TEA, A549 cells were exposed to 150 cGy of 137Cs γ-irradiation, and the radiation-induced currents were measured under three different conditions: (a) directly after irradiation, (b) after replacement of the bath solution with medium containing 20 mM TEA and (c) after the TEA solution of step (b) had been replaced with TEA-free medium.
A549 cells grown as described in the Materials and Methods section were preincubated for 1 h in medium containing 20 mM N-acetylcysteine (NAC) (Schreck et al., 1991). The cells, still in the presence of NAC, were then irradiated (150 cGy), and the induced currents were recorded. The results are shown in FIG. 19 (open circles, irradiation without NAC preincubation; open triangles, preincubation with 20 mM NAC; solid circles, non-irradiated control cells).

The test system of the next data set is TR-4 cells. The note with it: 20 mM TEA during 45° C. 40 min heating step and/or 12 h 37° C. incubation. On the procedure: The development of thermotolerance in TR-4 cells in the presence or absence of 20 mM TEA was assessed by heating the cells at 45° C. for 40 min, followed by a 12 h incubation at 37° C. (Hahn and van Kersen, 1988), and assessment of cell survival following heating and clonogenic assay as described in Example 4. Five groups of TR-4 cells (a to e) were examined, differing only as to which steps of the procedure included TEA in the cell medium.

The test system of data set [5] is voltage-dependent potassium channel currents in TR-4 cells. The note with it: 20 mM TEA in cell medium during current measurement; TR-4 cells heated 45° C. 10 min.
Protocol: Voltage-Clamp Recordings. Whole-cell recording was performed by voltage clamp analysis as described by Hamill et al. (1981). In general, prior to whole cell recording, the cell medium was replaced with serum-free medium to ensure a better giga-ohm seal. Glass electrodes were prepared using a vertical pipette puller (model P30 from Sutter Instruments, Calif.). The tip diameter to be achieve depended upon the size of the cell-type being examined, but was generally between about 0.5 and 1 μm. Glass electrodes having a tip resistance of 3-7 Mohms were sylgarded (with Sylgard, Dow Chemical) and backfilled with a solution containing 140 mM KCl, 2 mM MgCl2, 11 mM EGTA, 1 mM CaCl2, and 10 mM Hepes, pH 7.2. […] The membrane seal resistance was determined from the reduction in voltage of the test pulse.
Membrane currents were filtered at 2 kHz using a 4-pole low pass Bessel filter before sampling with a 12-bit digital-analog converter controlled by a Labmaster board (Scientific Solutions) in an IBM AT computer. Leakage currents were subtracted from the total currents measured at each voltage either by using a p,p/4 algorithm (Armstrong and Bezanilla, 1974) built into the software (INDEC Systems, Santa Cruz, Calif.), or after determining the linear component from the current-voltage (I-V) relation near the holding potential of -75 mV. […]
The next data set relates to heat shock factor (HSF). The protocol:
To determine whether the presence of TEA during heating prevented the activation of heat shock factor (HSF), RIF-1 and TR-4 cells grown as in Example 1 were heated at 45° C. for 15-40 minutes in the presence or absence of 20 mM TEA in the medium. After being washed with fresh medium (no TEA), the cells were harvested, and gel retardation assays were performed as described by Zimarino et al. (1987), except that the electrophoresis was performed on a 4.5% native polyacrylamide gel in 0.5X TBE buffer (45 mM Tris-borate, 1 mM EDTA) at 140 V at room temperature for 2.5 h. The gel was fixed by soaking in 7% acetic acid for 5 min, rinsed briefly in distilled water, and dried on Whatman 3 MM chromatography paper. The gel was then autoradiographed by exposing Kodak XAR-2 film to the gels at -70° C. with intensifying screens (Cronex Lighting Plus, Dupont).

A further data set concerns A549 cells. The settings on record: 20 mM TEA in cell medium during irradiation, doses greater than about 200 cGy. On the procedure:
γ-irradiation. Cells were irradiated at room temperature using a ^137 [Cs] source at a dose rate of 150 cGy/min. The ^137 [Cs] source consisted of a Mark I irradiator (model 30, 2000 Ci ^137 [Cs]) from J. L. Shepherd and Associates (Glendale, Calif.). Unless noted otherwise, the cells were incubated at 37° C. after irradiation for further characterization.
In another experiment, cell survival of A549 cells was measured as a function of ^137 Cs irradiation dosages (0-1000 cGy) in the presence or absence of 20 mM TEA in the cell medium during irradiation.

On to `C[S+](C)[O-]` [DMSO, dimethylsulfoxide], for which the “expression of K+ channel proteins recognized by ShA-3 antibody” value in [1] was “expressed at higher levels than in cells grown without DMSO; also recorded: increased with increasing duration of exposure”. In data set [2] (heated 45° C. 10 min), the “voltage-dependent potassium currents in DMSO-cultured cells after heating” value is recorded as “exhibited voltage-dependent potassium currents”. In addition, the “effect on level of cellular HSP70” value with HSP70 (RIF-1 cells grown 7 days in 2% DMSO, heated 45° C. 10 min, analyzed directly or after 18 hour growth) is recorded as “no effect on the level of cellular HSP70”. Besides, in the data set with RIF-1 cells (RIF-1 cells cultured in 2% (v:v) DMSO for seven days, then heated at 45° C.), the “heat resistance of cells cultured in DMSO” value is reported as “significantly more heat resistant”.
As to `OO` [Hydrogen peroxide, hydrogen peroxide], the “induction of voltage-dependent potassium current” value in [3] (3.0 μM final concentration in cell medium, measured within 30 seconds) is “sizeable voltage-dependent current”.
Take `CC(=O)N[C@@H](CS)C(=O)O` [N-acetylcysteine]: the “effect on induction of potassium currents by irradiation” value in data set [4] (20 mM, 1 h preincubation and present during 150 cGy irradiation) is given as “effective to substantially reduce current induction”.
For the compound `CC[N+](CC)(CC)CC.[Cl-]` [TEA, Tetraethylammonium chloride], the “effect on radiation-induced potassium currents” value in [4] (20 mM TEA after 150 cGy 137Cs irradiation) is given as “reversible inhibition; also recorded: could be inhibited by TEA”. Further, the “effect on development of thermotolerance” value in the data set with TR-4 cells was “little effect on the development of thermotolerance”. Further, the “effect on heat-induced voltage-dependent potassium currents” value in data set [5] was “abolished nearly all detectable current”. Also, in the data set with heat shock factor (HSF), the “effect on heat-induced activation of HSF” value is on record as “eliminated most or all of the heat-induced activation of HSF” and the “effect on levels of activated HSF” value is on record as “no effect on the levels of activated HSF”. Besides, in data set [2] (20 mM TEA in cell solution during current measurements), the “effect on heat-induced currents in DMSO-cultured cells” value is listed as “virtually abolished the currents”. Besides, the “effect on cytotoxicity of 137Cs irradiation” value with A549 cells was “cytotoxicity was increased somewhat”. In the data set with HSP70 (20 mM TEA during heating 10 min 45° C., ShakerB-transfected vs mock-transfected RIF-1 cells), the “inhibitory effect on expression of HSP70 (constitutive and inducible forms)” value was “greater in the cells transfected with the ShakerB gene than in mock transfected cells; also recorded: greater in the cells transfected with the ShakerB gene than in the mock-transfected cells”. For the same compound, the “effect on survival rate after heating” value with RIF-1 cells (20 mM TEA during heating at 45° C. for 0-100 min, RIF-1 cells) is listed as “no effect on the survival rate of the RIF-1 cells; also recorded: no effect on the survival rate of RIF-1 cells”. Moreover, the “effect on heat resistance of DMSO-cultured cells” value in the data set with RIF-1 cells (20 mM TEA in medium during heating, RIF-1 cells cultured 7 days in 2% DMSO) is reported as “diminished heat resistance”.
With `Cc1cn([C@H]2C[C@H](O)[C@@H](CO)O2)c(=O)[nH]c1=O` [[^3 H]thymidine], in data set [3] (2 μCi/ml for 16-18 hours prior to whole-cell recording), the “induction of potassium currents” value is recorded as “No potassium currents were observed”.
